From patent US5079257A, “Indoloquinone compounds” (priority 1986, dated 1992) come the findings set out here.

One data set concerns Renal line (RXF 423). Kind of data set: Human tumour xenograft in nude mice: renal. The class given is in vivo. The following applies: i.v. days 22 and 29, 4 and 6 mg/kg. The text has this:
(§1) Based on the results obtained during the in vitro experiments indoloquinone E.O. 9 was selected for an extended in vivo study. The activity of this compound has been determined in four human tumour xenografts transplanted in nude mice.
(§2) The xenograft experiments have been carried by Dr. H. H. Fiebig of the University of Freiburg [Lung-NSCLC (LXGF) line, Renal line, Breast line; See: H. H. Fiebig et al., Behring Inst. Mitt., 74 343] and by Dr. E. Boven of the Free University Hospital Amsterdam [Ovarian (MRI-H-207) line; See: E. Boven et al., Cancer Res., 45, 86 (1985) and E. Boven et al., Eur. J. Clin. Oncol., 21, 1253 (1985)].
The tumour was transplanted s.c. and E.O. 9 was administrated i.v. on days 22 and 29 after transplantation at a dose of 4 and 6 mg/kg.
(A xenograft is tissue or cells of one species grown in another, often human tumour cells in immunodeficient mice.)

For a further data set, the system named is Breast line. Put plainly: Human tumour xenograft in nude mice: breast. It counts as in vivo. The following applies: i.v. days 46 and 53, 4 and 6 mg/kg.
Description: as §1, §2
The tumour was transplanted s.c. and E.O. 9 was administrated i.v. on days 46 and 53 after transplantation at a dose of 4 and 6 mg/kg.

In the next data set the test system is Lung-NSCLC (LXFG) line. Put plainly: Human tumour xenograft in nude mice: lung. It counts as in vivo. The conditions noted are these: i.v. days 14 and 21, 4 and 6 mg/kg.
Description: as §1, §2
The tumour was transplanted s.c. and E.O. 9 was administrated i.v. on days 14 and 21 after transplantation at a dose of 4 and 6 mg/kg.

In the next data set the test system is Ovarian (MRI-H-207) line. It counts as in vivo, human. The conditions noted are these: for T/C % / toxic deaths: days of treatment 0.7.
Description: as §2
Mice: C57B1 athymic (nu/nu) female mice, 8 to 10 weeks of age were used for s.c. bilateral implantation of tumour fragments 2 mm diameter.
Treatment: E.O. 9 was dissolved in saline at a concentration of 0.5 mg/ml prior to administration. Drug doses and schedules were derived from studies in experimental murine tumour systems and from orientation studies in non-tumour-bearing nude mice. Treatment was started i.v. when tumours measured 50-150 mm^3. After randomization a group of 6-7 tumour-bearing mice was treated and a group of 5-6 tumour-bearing mice served as control.
Evaluation of efficacy: Tumours were measured twice weekly in three dimensions. Efficacy was expressed as the mean of relative tumour volume in treated animals vs. that in control animals×100 (% T/C). The optimal value was calculated within 35 days after the last injection. Toxic death (dead mice within two weeks after the last injection) were excluded from the evaluation.
MRI-H-207: An undifferentiated adenocarcinoma kindly provided by Dr. A. E. Bogden, Worcester, Mass, with a doubling time of 3-5 days.

Where two headings read alike, the source gives them in different places.

For the molecule `Cn1c(/C=C/CO)c(CO)c2c1C(=O)C=C(N1CC1)C2=O` [E.O. 9, 5-Aziridino-3-hydroxymethyl-1-methyl-2-[1H-indole-4,7-dione]prop-β-en-α-ol], the “growth inhibition” value in the data set on Renal line (RXF 423) is “No significant growth inhibition”. Besides, the optimal growth inhibition is 51% in the data set with Breast line; 42% with Lung-NSCLC (LXFG) line; 98% in the data set on Ovarian (MRI-H-207) line (5 and 6 mg/kg q8d×2). In the data set with Lung-NSCLC (LXFG) line, this molecule returned a specific growth delay of 1.03. Further, the T/C % worked out at 3.8% in the data set on Ovarian (MRI-H-207) line (5 mg/kg) and 2.4% in the data set with Ovarian (MRI-H-207) line (6 mg/kg). The toxic deaths with Ovarian (MRI-H-207) line (5 mg/kg) is 0/7; in the data set on Ovarian (MRI-H-207) line (6 mg/kg) it was 1/7.
